Experimental data from PubChem BioAssay (NCI).
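Interpolation was linear, between the two tested concentrations surrounding the appropriate level; five concentrations were tested over 48 hours in 96-well plates. The concentration for 50% growth inhibition is given as GI50. Definition used: TGI = concentration required for complete inhibition of growth.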

Tests used:
Assay in all cases: growth of human tumour cells (NCI), 48 h
SK-MEL-28 melanoma = system: SK-MEL-28 melanoma
RPMI-8226 leukemia = system: RPMI-8226 leukemia
SW-620 colon = system: SW-620 colon
NCI/ADR-RES ovarian = system: NCI/ADR-RES ovarian
UACC-62 melanoma = system: UACC-62 melanoma
HOP-92 NSCLC = system: HOP-92 NSCLC
T-47D breast = system: T-47D breast
NCI-H23 lung = system: NCI-H23 lung
HCT-15 colon = system: HCT-15 colon
IGROV1 ovarian = system: IGROV1 ovarian
DU-145 prostate = system: DU-145 prostate
U251 CNS = system: U251 CNS
SF-539 CNS = system: SF-539 CNS
CAKI-1 renal = system: CAKI-1 renal
HS 578T breast = system: HS 578T breast
786-0 renal = system: 786-0 renal
SNB-19 CNS = system: SNB-19 CNS
HL-60(TB) leukemia = system: HL-60(TB) leukemia
UO-31 renal = system: UO-31 renal
RXF 393 renal = system: RXF 393 renal
M14 melanoma = system: M14 melanoma
SF-268 CNS = system: SF-268 CNS
SR leukemia = system: SR leukemia
OVCAR-3 ovarian = system: OVCAR-3 ovarian
MDA-MB-435 = system: MDA-MB-435
ACHN renal = system: ACHN renal
LOX IMVI melanoma = system: LOX IMVI melanoma
HT29 colon = system: HT29 colon
OVCAR-8 ovarian = system: OVCAR-8 ovarian
UACC-257 melanoma = system: UACC-257 melanoma
SK-MEL-5 melanoma = system: SK-MEL-5 melanoma
TK-10 renal = system: TK-10 renal
SN12C renal = system: SN12C renal
PC-3 prostate = system: PC-3 prostate
OVCAR-4 ovarian = system: OVCAR-4 ovarian
K-562 leukemia = system: K-562 leukemia
MALME-3M melanoma = system: MALME-3M melanoma
MDA-MB-231 breast = system: MDA-MB-231 breast
MOLT-4 leukemia = system: MOLT-4 leukemia
HCT-116 colon = system: HCT-116 colon
HOP-62 NSCLC = system: HOP-62 NSCLC
MCF7 breast = system: MCF7 breast
A498 renal = system: A498 renal
NCI-H460 lung = system: NCI-H460 lung
OVCAR-5 ovarian = system: OVCAR-5 ovarian
SNB-75 CNS = system: SNB-75 CNS
CCRF-CEM leukemia = system: CCRF-CEM leukemia
NCI-H522 lung = system: NCI-H522 lung
EKVX NSCLC = system: EKVX NSCLC
A549 NSCLC = system: A549 NSCLC
HCC-2998 colon = system: HCC-2998 colon
SF-295 CNS = system: SF-295 CNS
KM12 colon = system: KM12 colon
SK-MEL-2 melanoma = system: SK-MEL-2 melanoma
BT-549 breast = system: BT-549 breast

Structure (SMILES): CN1CCN(CCOc2ccc(-c3cnc4c(-c5ccc(F)cc5)cnn4c3)cc2)CC1
- GI50 (SK-MEL-28 melanoma): 1.87 µM
- TGI (SK-MEL-28 melanoma): 3.62 µM
- GI50 (RPMI-8226 leukemia): 1.67 µM
- TGI (RPMI-8226 leukemia): 4.67 µM
- GI50 (SW-620 colon): 1.89 µM
- TGI (SW-620 colon): 3.56 µM
- GI50 (NCI/ADR-RES ovarian): 2.2 µM
- TGI (NCI/ADR-RES ovarian): 4.88 µM
- GI50 (UACC-62 melanoma): 1.78 µM
- TGI (UACC-62 melanoma): 3.36 µM
- GI50 (HOP-92 NSCLC): 1.43 µM
- TGI (HOP-92 NSCLC): 3.3 µM
- GI50 (T-47D breast): 1.49 µM
- TGI (T-47D breast): 3.86 µM
- GI50 (NCI-H23 lung): 1.73 µM
- TGI (NCI-H23 lung): 3.25 µM
- GI50 (HCT-15 colon): 1.32 µM
- TGI (HCT-15 colon): 2.75 µM
- GI50 (IGROV1 ovarian): 1.63 µM
- TGI (IGROV1 ovarian): 3.3 µM
- GI50 (DU-145 prostate): 1.64 µM
- TGI (DU-145 prostate): 3.16 µM
- GI50 (U251 CNS): 1.39 µM
- TGI (U251 CNS): 2.94 µM
- GI50 (SF-539 CNS): 1.27 µM
- TGI (SF-539 CNS): 2.57 µM
- GI50 (CAKI-1 renal): 1.52 µM
- TGI (CAKI-1 renal): 2.89 µM
- GI50 (HS 578T breast): 1.49 µM
- TGI (HS 578T breast): 4.53 µM
- GI50 (786-0 renal): 1.73 µM
- TGI (786-0 renal): 3.2 µM
- GI50 (SNB-19 CNS): 1.66 µM
- TGI (SNB-19 CNS): 3.39 µM
- GI50 (HL-60(TB) leukemia): 2.09 µM
- TGI (HL-60(TB) leukemia): 4.47 µM
- GI50 (UO-31 renal): 1.31 µM
- TGI (UO-31 renal): 2.93 µM
- GI50 (RXF 393 renal): 1.65 µM
- TGI (RXF 393 renal): 3.27 µM
- GI50 (M14 melanoma): 1.96 µM
- TGI (M14 melanoma): 3.7 µM
- GI50 (SF-268 CNS): 2.03 µM
- TGI (SF-268 CNS): 5.31 µM
- GI50 (SR leukemia): 2.07 µM
- TGI (SR leukemia): 10.9 µM
- GI50 (OVCAR-3 ovarian): 1.68 µM
- TGI (OVCAR-3 ovarian): 3.35 µM
- GI50 (MDA-MB-435): 1.73 µM
- TGI (MDA-MB-435): 3.18 µM
- GI50 (ACHN renal): 1.42 µM
- TGI (ACHN renal): 2.73 µM
- GI50 (LOX IMVI melanoma): 1.76 µM
- TGI (LOX IMVI melanoma): 3.25 µM
- GI50 (HT29 colon): 1.65 µM
- TGI (HT29 colon): 4.28 µM
- GI50 (OVCAR-8 ovarian): 2.14 µM
- TGI (OVCAR-8 ovarian): 5.08 µM
- GI50 (UACC-257 melanoma): 2.11 µM
- TGI (UACC-257 melanoma): 4.42 µM
- GI50 (SK-MEL-5 melanoma): 1.64 µM
- TGI (SK-MEL-5 melanoma): 3.04 µM
- GI50 (TK-10 renal): 1.82 µM
- TGI (TK-10 renal): 3.5 µM
- GI50 (SN12C renal): 1.69 µM
- TGI (SN12C renal): 3.23 µM
- GI50 (PC-3 prostate): 1.7 µM
- TGI (PC-3 prostate): 3.82 µM
- GI50 (OVCAR-4 ovarian): 1.43 µM
- TGI (OVCAR-4 ovarian): 3.61 µM
- GI50 (K-562 leukemia): 0.365 µM
- TGI (K-562 leukemia): 2.3 µM
- GI50 (MALME-3M melanoma): 1.62 µM
- TGI (MALME-3M melanoma): 3.13 µM
- GI50 (MDA-MB-231 breast): 1.57 µM
- TGI (MDA-MB-231 breast): 3.07 µM
- GI50 (MOLT-4 leukemia): 1.56 µM
- TGI (MOLT-4 leukemia): 3.59 µM
- GI50 (HCT-116 colon): 1.55 µM
- TGI (HCT-116 colon): 3.05 µM
- GI50 (HOP-62 NSCLC): 1.85 µM
- TGI (HOP-62 NSCLC): 3.81 µM
- GI50 (MCF7 breast): 1.48 µM
- TGI (MCF7 breast): 3.05 µM
- GI50 (A498 renal): 1.64 µM
- TGI (A498 renal): 4.89 µM
- GI50 (NCI-H460 lung): 1.54 µM
- TGI (NCI-H460 lung): 3.06 µM
- GI50 (OVCAR-5 ovarian): 1.6 µM
- TGI (OVCAR-5 ovarian): 3.03 µM
- GI50 (SNB-75 CNS): 1.34 µM
- TGI (SNB-75 CNS): 3.32 µM
- GI50 (CCRF-CEM leukemia): 1.55 µM
- TGI (CCRF-CEM leukemia): 3.82 µM
- GI50 (NCI-H522 lung): 1.87 µM
- TGI (NCI-H522 lung): 3.94 µM
- GI50 (EKVX NSCLC): 1.79 µM
- TGI (EKVX NSCLC): 3.55 µM
- GI50 (A549 NSCLC): 1.71 µM
- TGI (A549 NSCLC): 3.45 µM
- GI50 (HCC-2998 colon): 1.77 µM
- TGI (HCC-2998 colon): 3.45 µM
- GI50 (SF-295 CNS): 1.73 µM
- TGI (SF-295 CNS): 3.23 µM
- GI50 (KM12 colon): 1.06 µM
- TGI (KM12 colon): 2.36 µM
- GI50 (SK-MEL-2 melanoma): 2.09 µM
- TGI (SK-MEL-2 melanoma): 4.31 µM
- GI50 (BT-549 breast): 2.68 µM
- TGI (BT-549 breast): 9.44 µM
